Measured values reported in USH1992H, “Metalloproteinase inhibitors, pharmaceutical compositions containing them, and their pharmaceutical uses” (Agouron Pharmaceuticals, Inc., priority 1999, dated 2001).

Key:
Assay type in all cases: biochemical
[1] = target: T1, human stromelysin-1 (Strom) (Homo sapiens, UniProt P08254); assay: Inhibition of stromelysin (Strom) - fluorogenic MCA peptide substrate hydrolysis; conditions: catalytic domain; Ki,app; MCA peptide substrate 10 μM, pH 7.5, 37° C., 2% DMSO; enzyme 1.5 nM
T1 construct: The catalytic domain of human stromelysin (Sln) was obtained by expression and purification of a C-terminally truncated prostromelysin-1; made in house; host or cells: E. coli BL21
T1 sequence (P08254 100-272 limits assumed): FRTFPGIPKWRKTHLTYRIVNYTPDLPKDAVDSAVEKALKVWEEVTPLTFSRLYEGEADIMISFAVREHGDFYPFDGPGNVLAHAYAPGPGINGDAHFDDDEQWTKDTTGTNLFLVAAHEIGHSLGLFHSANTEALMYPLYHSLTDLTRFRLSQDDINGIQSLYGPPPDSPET
Experimental: The catalytic domain of human stromelysin (Sln) was obtained by expression and purification of a C-terminally truncated prostromelysin-1 from E. coli host BL21 (see Marcy et al. Biochem., 1991, 30, 6476, which article is entirely incorporated herein by reference). The subsequent activation of the mature form (Sln) was completed with 2mM APMA for 1 hour at 37° C., followed by separation using a sizing column.
(§1) Assays were performed in assay buffer (50 mM Tricine pH 7.5, 200 mM sodium chloride, 10 mM calcium chloride, 0.5 mM zinc acetate containing 2% dimethyl sulfoxide (DMSO)), once the substrate and inhibitor were diluted into it. Stock solutions of inhibitors were prepared in 100 % DMSO. Stock solutions of the substrate were prepared in 100 % DMSO at a concentration of 6 mM.
(§2) The assay method was based on the hydrolysis of MCA-Pro-Leu-Gly-Leu-DPA-Ala-Arg-NH2 (American Peptide Co.) at 37° C. (see Knight, C. G. et al., FEBS, 1992, 296, 263-266, which article is entirely incorporated herein by reference). The fluorescence changes were monitored with a Perkin-Elmer LS-50B fluorimeter using an excitation wavelength of 328 nm and an emission wavelength of 393 nm. The substrate concentration used in the assays was 10 μM. The inhibitor was diluted into the assays from a solution in 100 % DMSO, and controls substituted an equal volume of DMSO so that the final DMSO concentration from inhibitor and substrate dilution in all assays was 2%. […] Proper determination of steady-state rates of substrate cleavage required assay lengths of 60 minutes to allow for complete equilibration of the enzyme-inhibitor complex.
(§3) The Km for the MCA peptide substrate with the matrix metalloproteinases is quite high and exceeds its solubility under assay conditions. Consequently, the apparent Ki (Ki, app) was determined to describe the strength of inhibition. However, in this case, Ki,app would be essentially equal to Ki since [S]<<Km. For the determination of Ki,app, the concentration of the inhibitor was varied at a constant and low concentration of substrate, and the steady-state rates of fluorescence change were determined. In most cases, absorptive quench due to the presence of ligand was not observed. For slow-binding inhibitors, onset of inhibition curves were collected for at least 45 minutes so that equilibrium was established. Steady-state rates of fluorescence change were obtained by fitting a curve to an equation for a single exponential decay containing a linear phase. The fitted value of the linear phase was taken as the steady-state rate. The steady-state rates were fitted to the Michaelis equation describing competitive inhibition by non-linear methods. Data resulting from tight-binding inhibition was analyzed, and Ki,app determined by fitting the data to the tight-binding equation of Morrison (Biochem. Biophys. Acta, vol. 185, pp. 269-286 (1969), which article is entirely incorporated herein by reference) by non-linear methods.
(§4) All Ki values are in nM units.

[2] = target: human collagenase-3 (Coll-3); assay: Inhibition of collagenase-3 (Coll-3) - fluorogenic MCA peptide substrate hydrolysis; conditions: catalytic domain; Ki,app; MCA peptide substrate 10 μM, pH 7.5, 37° C., 2% DMSO
Experimental: The propeptide and catalytic domain of human collagenase-3 (Coll3) was expressed in E. coli as an N-terminal fusion protein with ubiquitin. After purification of the fusion from inclusion bodies, the catalytic domain was liberated by treatment with 2mM APMA at room temperature overnight. Final purification was completed using copper chelate chromatography.
as §1, §2, §3, §4

[3] = target: T2, human collagenase-1 (HFC) (Homo sapiens, UniProt P03956); assay: Inhibition of collagenase-1 (HFC) - fluorogenic MCA peptide substrate hydrolysis; conditions: catalytic domain; Ki,app; MCA peptide substrate 10 μM, pH 7.5, 37° C., 2% DMSO
T2 construct: the fibroblast collagenase-1 catalytic domain (HFC) was released; ubiquitin (fusion) (cleaved yes); made in house; host or cells: E. coli
T2 sequence (P03956 100-269 limits assumed): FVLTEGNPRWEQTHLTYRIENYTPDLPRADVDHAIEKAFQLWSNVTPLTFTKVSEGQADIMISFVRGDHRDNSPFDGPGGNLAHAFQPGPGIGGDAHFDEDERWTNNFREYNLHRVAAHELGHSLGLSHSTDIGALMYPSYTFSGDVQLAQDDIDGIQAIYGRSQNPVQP
Source text: The catalytic domain of human collagenase-1 was expressed as a fusion protein with ubiquitin in E. coli (see Gehring, E. R., J. Biol. Chem., 1995, 270, 22507, which article is entirely incorporated herein by reference). After purification of the fusion protein, the fibroblast collagenase-1 catalytic domain (HFC) was released either by treatment with purified, active stromelysin-1 (1:50 w/w ratio), which generated nearly 100% N-terminal Phe1, or by autoprocessing the concentrated collagenase-1 fusion and then incubating at 37° C. for 1 hour. Final purification was completed using zinc chelate chromatography.
as §1, §2, §3, §4

[4] = target: human gelatinase A (Gel A); assay: Inhibition of gelatinase A (Gel A) - fluorogenic MCA peptide substrate hydrolysis; conditions: catalytic and fibronectin-like portion; Ki,app; MCA peptide substrate 10 μM, pH 7.5, 37° C., 2% DMSO; enzyme 60 pM
Experimental: The catalytic and fibronectin-like portion of human progelatinase A (GelA) was expressed as a fusion protein with ubiquitin in E. Coli. Assays were carried out on autocatalytically activated material.
as §1, §2, §3, §4

[5] = target: T3, human matrilysin (Matr) (Homo sapiens, UniProt P09237); assay: Inhibition of matrilysin (Matr) - fluorogenic MCA peptide substrate hydrolysis; conditions: catalytic domain; Ki,app; MCA peptide substrate 10 μM, pH 7.5, 37° C., 2% DMSO
T3 construct: the catalytic domain was liberated by treatment with 2mM APMA; ubiquitin (fusion) (cleaved yes); made in house; host or cells: E. coli
T3 sequence (P09237 95-267): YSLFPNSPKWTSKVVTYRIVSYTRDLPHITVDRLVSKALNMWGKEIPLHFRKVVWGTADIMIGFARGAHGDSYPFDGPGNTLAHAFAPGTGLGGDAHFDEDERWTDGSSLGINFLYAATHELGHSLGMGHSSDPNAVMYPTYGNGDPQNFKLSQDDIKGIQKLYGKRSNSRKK
Experimental: Human matrilysin (Matr) was expressed in E. coli as a fusion protein with ubiquitin. After purification of the matrilysin/ubiquitin fusion from inclusion bodies, the catalytic domain was liberated by treatment with 2mM APMA at 37 ° C. for 2 hours. Final purification was complete using copper chelate chromatography.
as §1, §2, §3, §4

| Structure (SMILES) | Ki [1] [nM] | Ki [2] [nM] | Ki [3] [nM] | Ki [4] [nM] | Ki [5] [nM] |
| --- | --- | --- | --- | --- | --- |
| CC(C)[C@H](C(=O)NO)N(Cc1cccnc1)S(=O)(=O)c1ccc(Oc2ccc(Br)cc2)cc1 [Example 3(a), 2(R)-2-[4-(4-Bromophenoxy)benzenesulfonyl][(pyridin-3-yl)methyl]amino-N-hydroxy-3-methylbutanamide] | 0.35 | 0.02 | 7.6 | – | – |
| CC(C)[C@H](C(=O)NO)N(Cc1cccnc1)S(=O)(=O)c1ccc(Oc2ccccc2)cc1 [Example 3(b), 2(R)-N-hydroxy-2-[(4-phenoxy)benzenesulfonyl][(pyridin-3-yl)methyl]amino-3-methylbutanamide] | 1.2 | 0.05 | 6 | – | – |
| CCOP(=O)(CN(CC(=O)O)S(=O)(=O)c1ccc(Oc2ccccc2)cc1)OCC [Example 4(a), 2(R)-2-[(diethylphosphonomethyl)(4-phenoxybenzenesulfonyl)-amino]-acetic acid] | 27000 | 740 | – | – | – |
| CCOP(=O)(CN(CC(=O)NO)S(=O)(=O)c1ccc(Oc2ccccc2)cc1)OCC [Example 4, 2(R)-2-[(diethylphosphonomethyl)(4-phenoxybenzenesulfonyl)amino]-N-hydroxyacetamide] | 0.23 | 0.09 | 27 | – | – |
| O=C(O)[C@H]1CCCCN1S(=O)(=O)c1ccc(Oc2ccc(Br)cc2)cc1 [Example 5(a)] | 16000 | 448 | 481000 | 192 | 540000 |
| O=C(NO)[C@H]1CCCCN1S(=O)(=O)c1ccc(Oc2ccc(Br)cc2)cc1 [Example 5, 2(R)-1-[4-(4-Bromophenoxy)benzenesulfonyl]-N-hydroxypiperidine-2-carboxamide] | 0.04 | 0.014 | 15 | 0.018 | 44 |
| O=C(O)[C@H]1CCCCN1S(=O)(=O)c1ccc(Oc2ccc(-c3ccccc3)cc2)cc1 [Example 6(a)] | 2190 | 212 | 125000 | 64 | 72000 |
| O=C(NO)[C@H]1CCCCN1S(=O)(=O)c1ccc(Oc2ccc(-c3ccccc3)cc2)cc1 [Example 6, 2(R)-1-[4-(Biphenyl-4-yl)oxybenzenesulfonyl]-N-hydroxy-piperidine-2-carboxamide] | 0.06 | – | 8.8 | 0.014 | 6.7 |
| O=C(NO)[C@H]1CCCCN1S(=O)(=O)c1ccc(Oc2ccccc2)cc1 [Example 7, 2(R)-1-(4-Phenoxy-benzenesulfonyl)-N-hydroxy-piperidine-2-carboxamide] | 0.07 | – | 6.6 | – | 55 |
